Where two headings read alike, the source gives them in different places.
Legend:
14-3-3σ/C-RAF [1] = molecular target: T1, 14-3-3σ/C-RAF (Homo sapiens, UniProt P31947); test: Mass spectrometry dose response, compound binding to 14-3-3σ in the presence of C-RAF phosphopeptide; details: 100 nM compound, 100 nM 14-3-3σ, C-RAF peptide 18 µM
T1 construct: The 14-3-3 σ isoform (full-length for mass spectrometry and fluorescence anisotropy assays, ΔC for crystallography); made in house; host or cells: E. coli Rosetta 2(DE3)pLysS, pPROEX HTb vector
T1 sequence (P31947 1-248): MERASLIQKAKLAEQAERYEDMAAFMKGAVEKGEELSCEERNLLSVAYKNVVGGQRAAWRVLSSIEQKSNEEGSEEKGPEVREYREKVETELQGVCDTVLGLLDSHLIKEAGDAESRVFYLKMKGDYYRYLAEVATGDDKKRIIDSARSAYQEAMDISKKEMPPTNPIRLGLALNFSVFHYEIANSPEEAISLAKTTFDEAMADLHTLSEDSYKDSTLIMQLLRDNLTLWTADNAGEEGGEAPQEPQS
Summary of the method: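 Compound stocks of 50 mM in DMSO were serially diluted 3-fold to give 19-point dose responses topping out at 1 mM, then 1000 nl was transferred into 50 μl wells holding 100 nM full-length wild type 14-3-3σ plus C-RAF phosphopeptide. Mass spectrometry measured percent compound bound to Cys38, with curves fitted in GraphPad Prism using a four-parameter variable-slope model.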

14-3-3σ = molecular target: T2, 14-3-3σ (Homo sapiens, UniProt P31947); test: Mass spectrometry dose response, compound binding to 14-3-3σ in the absence of peptide (apo); details: 100 nM compound, 100 nM 14-3-3σ
T2 construct: The 14-3-3 σ isoform (full-length for mass spectrometry and fluorescence anisotropy assays, ΔC for crystallography); made in house; host or cells: E. coli Rosetta 2(DE3)pLysS, pPROEX HTb vector
T2 sequence (P31947 1-248): T1 sequence (P31947 1-248)
Summary of the method: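 This apo mass spectrometry assay tracked adduct formation between compounds and the native cysteine of 14-3-3σ in the absence of any peptide. Wells held 100 nM protein in 10 mM TRIS pH 8.0 with a 3-fold compound dilution series, final volume 50 μl. Injections of 6 μl were taken at 1h, 8h, 16h and 24h, and dose responses were fitted with a four-parameter variable-slope model in GraphPad Prism.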

14-3-3σ/ERα [2] = molecular target: T3, 14-3-3σ/ERα (Homo sapiens, UniProt P03372+P31947); test: Mass spectrometry dose response, compound binding to 14-3-3σ in the presence of ERα phosphopeptide; details: 100 nM compound, 100 nM 14-3-3σ, ERα-peptide 2 µM
T3 construct: The 14-3-3 σ isoform (full-length for mass spectrometry and fluorescence anisotropy assays, ΔC for crystallography); made in house; host or cells: E. coli Rosetta 2(DE3)pLysS, pPROEX HTb vector
Summary of the method: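 Covalent labeling of Cys38 on 14-3-3σ was tracked by LC-MS on a Waters Acquity UPLC/Xevo G2-XS Q-Tof, with samples desalted on a Protein BEH-C4 column. Full-length wild type 14-3-3σ (100 nM) plus ERα phosphopeptide was mixed with compound in 10 mM TRIS, pH 8.0, at 50 μl per well. Percent bound was measured at several time points.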

14-3-3σ/ERα [3] = molecular target: T3, 14-3-3σ/ERα; test: Fluorescence anisotropy protein titration, FAM-labeled ERα peptide; assay type: binding; details: 10 nM FAM-ERα peptide; for X Fold stabilization (100 µM compound) of 14-3-3σ/ERα: versus DMSO reference; for Kd: 100 µM compound, overnight incubation
Experimental: To evaluate compound-mediated stabilization of the 14-3-3σ/ERα complex directly, FA protein titrations were performed at a saturating concentration of compound. FA protein titrations allowed the quantification of the cooperative effect by comparing the apparent dissociation constants (appKD) of the binary and ternary complexes. 14-3-3σ was titrated into 10 nM FAM-labeled ERα peptide in the presence of DMSO or 100 μM of the compounds (Table S4). […]
diluted in buffer (10 mM HEPES, pH 7.5, 150 mM NaCl, 0.1% Tween20, 1 mg/mL Bovine Serum Albumin (BSA; Sigma-Aldrich). Final DMSO in the assay was always 1%. […]
Protein titrations were made by titrating 14-3-3σ in a 2-fold dilution series (starting at 300 µM) to a mix of fluorescein-labeled peptide (10 nM) and DMSO or compound (100 µM). Fluorescence anisotropy measurements were performed after overnight incubation at room temperature. […]
Wells containing only FAM-peptide were used to set as G-factor at 35 mP. Data reported are at endpoint. EC50 and apparent Kd values were obtained from fitting the data with a four-parameter logistic model (4PL) in GraphPad Prism 7 for Windows. Data was obtained and averaged based on either three (compound titrations) or two (protein titrations) independent experiments.

14-3-3σ/C-RAF [4] = molecular target: T1, 14-3-3σ/C-RAF; test: Fluorescence anisotropy compound titration, FAM-labeled C-RAF peptide; assay type: binding; details: 10 nM C-RAF-FAM labeled peptide, 5 µM 14-3-3σ, overnight incubation; read-out: EC50 value C-RAF (FA compound titration)
Summary of the method: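 Peptide-binding stabilization was followed by fluorescence anisotropy. A mix of 5 µM 14-3-3σ and 10 nM FAM-labeled C-RAF peptide received 2-fold serial dilutions of compound starting at 500 or 1000 µM. The buffer was 10 mM HEPES pH 7.5, 150 mM NaCl, 0.1% Tween20 and 1 mg/mL BSA. Anisotropy was read after incubating overnight at room temperature. A four-parameter logistic fit in GraphPad Prism 7 gave EC50 values averaged from three experiments.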

14-3-3σ/ERα [5] = molecular target: T3, 14-3-3σ/ERα; test: Fluorescence anisotropy compound titration, FAM-labeled ERα peptide; assay type: binding; details: for EC50: 10 nM ERα-FAM labeled peptide, 1 µM 14-3-3σ, overnight incubation (24 h)
Summary of the method: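 Compounds, serially diluted 2-fold from a top concentration of 500 or 1000 µM, were added to 10 nM FAM-labeled ERα peptide plus 1 µM 14-3-3σ in 10 mM HEPES pH 7.5, 150 mM NaCl, 0.1% Tween20, 1 mg/mL BSA (1% DMSO). Anisotropy was measured after overnight room-temperature incubation, and EC50 values were derived by four-parameter logistic fitting averaged over three independent experiments.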

14-3-3σ/C-RAF [6] = molecular target: T1, 14-3-3σ/C-RAF; test: Fluorescence anisotropy compound titration, FAM-labeled C-RAF peptide; assay type: binding; details: EC50 value C-RAF (FA compound titration), 10 nM C-RAF-FAM labeled peptide, 5 µM 14-3-3σ, overnight incubation
[7] = read-out: EC50 value ERα (FA compound titration)

| Compound | Percentage (%) bound of compound to 14-3-3σ, CRAF 1h (14-3-3σ/C-RAF [1]) | Percentage (%) bound of compound to 14-3-3σ, CRAF 8h (14-3-3σ/C-RAF [1]) | Percentage (%) bound of compound to 14-3-3σ, CRAF 24h (14-3-3σ/C-RAF [1]; 24h) | Percentage (%) bound of compound to 14-3-3σ, CRAF 24h (14-3-3σ/C-RAF [1]; head prints 24h) | Percentage (%) bound of compound to 14-3-3σ, APO 1h (14-3-3σ) | Percentage (%) bound of compound to 14-3-3σ, APO 8h (14-3-3σ) | Percentage (%) bound of compound to 14-3-3σ, APO 16h (14-3-3σ) | Percentage (%) bound of compound to 14-3-3σ, APO 24h (14-3-3σ) | Percentage (%) bound of compound to 14-3-3σ, ERα 1h (14-3-3σ/ERα [2]) | Percentage (%) bound of compound to 14-3-3σ, ERα 8h (14-3-3σ/ERα [2]) | Percentage (%) bound of compound to 14-3-3σ, ERα 16h (14-3-3σ/ERα [2]) | Percentage (%) bound of compound to 14-3-3σ, ERα 24h (14-3-3σ/ERα [2]) | X Fold stabilization (100 µM compound) of 14-3-3σ/ERα (14-3-3σ/ERα [3]) | Kd (14-3-3σ/ERα [3]) | EC50 (14-3-3σ/C-RAF [4]) | EC50 (14-3-3σ/ERα [5]; [7]) | EC50 (14-3-3σ/C-RAF [6]) | EC50 (14-3-3σ/ERα [5]; EC50 value ERα (FA compound titration)) | selectivity for ERα (over C-RAF, FA EC50) (14-3-3σ/ERα [5]; FA compound titrations) |
| --- | --- | --- | --- | --- | --- | --- | --- | --- | --- | --- | --- | --- | --- | --- | --- | --- | --- | --- | --- |
| O=C(CCl)N1CCC2(CC1)CCN(C(=O)C1(Nc3ccc(Cl)cc3)CCOCC1)CC2 [compound 170] | 3.6% | 8.0% | 19.7% | 12.1% | 1.0% | 1.8% | 3.4% | 5.3% | 38.2% | 68.1% | 86.2% | 94.0% | 12 fold | 0.119 µM | 58 ± 11 µM | 8 ± 1 µM | – | – | – |
| O=C(CCl)NCC1CCN(C(=O)C2(Nc3ccc(Cl)cc3)CCCC2)CC1 [compound 118] | 2.9% | 3.4% | 23.7% | 11.5% | 0% | 0% | 0.8% | 13.0% | 11.2% | 24.1% | 60.1% | 96.6% | – | – | – | – | > 150 µM | 5 ± 0.4 µM | greater than 30 fold |
| CC1CC(Nc2ccc(Cl)cc2)(C(=O)NCC2CC3(CCN(C(=O)CCl)CC3)C2)CC(C)O1 (stereo not drawn) [compound 180] | 0% | 2.5% | 8.5% | 4.5% | 1.4% | 2.9% | 7.3% | 11.5% | 40.8% | 50.1% | 84.4% | 96.1% | 7 fold | 0.192 µM | > 150 µM | 10 ± 2 µM | – | – | – |
| CC1CC(Nc2ccc(Cl)cc2)(C(=O)N2CCC(CNC(=O)CCl)CC2)CC(C)O1 (stereo not drawn) [compound 178] | 0% | 0.5% | 5.7% | 2.0% | 0.9% | 1.7% | 2.4% | 2.5% | 24.6% | 36.8% | 77.5% | 96.4% | 15 fold | 0.094 µM | 86 ± 11 µM | 12 ± 1 µM | – | – | – |
| O=C(CCl)NC1CC2(CCN(C(=O)C3(Nc4ccc(Cl)cc4)CCOCC3)CC2)C1 [compound 166] | 1.8% | 4.0% | 23.3% | 11.8% | 1.2% | 3.2% | 5.5% | 13.3% | 32.6% | 60.3% | 87.6% | 94.0% | 13 fold | 0.16 µM | 77 ± 5 µM | 6 ± 0.3 µM | – | – | – |

Now from value to compound, other results behind:

| Percentage (%) bound of compound to 14-3-3σ, CRAF 1h (14-3-3σ/C-RAF [1]) | Percentage (%) bound of compound to 14-3-3σ, CRAF 8h (14-3-3σ/C-RAF [1]) | Percentage (%) bound of compound to 14-3-3σ, CRAF 24h (14-3-3σ/C-RAF [1]; 24h) | Percentage (%) bound of compound to 14-3-3σ, CRAF 24h (14-3-3σ/C-RAF [1]; head prints 24h) | Percentage (%) bound of compound to 14-3-3σ, APO 1h (14-3-3σ) | Percentage (%) bound of compound to 14-3-3σ, APO 8h (14-3-3σ) | Percentage (%) bound of compound to 14-3-3σ, APO 16h (14-3-3σ) | Percentage (%) bound of compound to 14-3-3σ, APO 24h (14-3-3σ) | Percentage (%) bound of compound to 14-3-3σ, ERα 1h (14-3-3σ/ERα [2]) | Percentage (%) bound of compound to 14-3-3σ, ERα 8h (14-3-3σ/ERα [2]) | Percentage (%) bound of compound to 14-3-3σ, ERα 16h (14-3-3σ/ERα [2]) | Percentage (%) bound of compound to 14-3-3σ, ERα 24h (14-3-3σ/ERα [2]) | X Fold stabilization (100 µM compound) of 14-3-3σ/ERα (14-3-3σ/ERα [3]) | Kd (14-3-3σ/ERα [3]) | EC50 (14-3-3σ/C-RAF [4]) | EC50 (14-3-3σ/ERα [5]; [7]) | Compound | EC50 (14-3-3σ/C-RAF [6]) | EC50 (14-3-3σ/ERα [5]; EC50 value ERα (FA compound titration)) | selectivity for ERα (over C-RAF, FA EC50) (14-3-3σ/ERα [5]; FA compound titrations) |
| --- | --- | --- | --- | --- | --- | --- | --- | --- | --- | --- | --- | --- | --- | --- | --- | --- | --- | --- | --- |
| 1.1% | 2.9% | 10.5% | 7.4% | 0% | 0% | 1.0% | 2.0% | 9.5% | 19.6% | 56.8% | 85.2% | 19 fold | 0.077 µM | > 150 µM | 2 ± 0.3 µM | O=C(CCl)NCC1CCN(C(=O)C2(Nc3ccc(Cl)cc3)CCOCC2)CC1 [compound 127] | – | – | – |
| 6.0% | 13.4% | 49.6% | 27.1% | 5.6% | 11.2% | 22.6% | 40.5% | 42.3% | 80.4% | 96.6% | 99.8% | 18 fold | 0.077 µM | 57 ± 5 µM | 4 ± 1 µM | O=C(CCl)N1CCC2(CC1)CC(NC(=O)C1(Nc3ccc(Cl)cc3)CCOCC1)C2 [compound 163] | – | – | – |

From PMC10515640, “Structure-Based Optimization of Covalent, Small-Molecule Stabilizers of the 14-3-3σ/ERα Protein–Protein Interaction from Nonselective Fragments” (Journal of the American Chemical Society, 2023)
